Measurements from US12227495B2, “Herbicidal compounds” (SYNGENTA CROP PROTECTION AG, priority 2018, dated 2025).

Legend:
Type in all cases: in vivo
Conditions in all cases: evaluated after 13 days
[1] = test system: Amaranthus retoflexus (AMARE); experiment: Post-emergence herbicide test, glasshouse, percentage damage
In short: (§1)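 Percentage damage, recorded 13 days after treatment, is given as a five-point score (1=0-20%, 2=21-40%, 3=41-60%, 4=61-80%, 5=81-100%). Plants grown in soil pots under 24/16 °C, 14 h light and 65% humidity received a 500 g/ha spray (unless stated otherwise).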

[2] = test system: Echinochloa crus-galli (ECHCG); experiment: as above
In short: as §1

[3] = test system: Ipomoea hederacea (IPOHE); experiment: as above
In short: as §1

[4] = test system: Lolium perenne (LOLPE); experiment: as above
In short: as §1

[5] = test system: Setaria faberi (SETFA); experiment: as above
In short: as §1

[6] = test system: Solanum nigrum (SOLNI); experiment: as above
In short: as §1

[7] = test system: Amaranthus retoflexus (AMARE); experiment: Pre-emergence herbicide test, glasshouse, percentage damage
In short: as §1

[8] = test system: Echinochloa crus-galli (ECHCG); experiment: as above
In short: as §1

[9] = test system: Ipomoea hederacea (IPOHE); experiment: as above
In short: as §1

[10] = test system: Lolium perenne (LOLPE); experiment: as above
In short: as §1

[11] = test system: Setaria faberi (SETFA); experiment: as above
In short: as §1

[12] = test system: Solanum nigrum (SOLNI); experiment: as above
In short: as §1

Compound | percentage damage caused to the plant, AMARE ([1]; 1000 g/ha) | percentage damage caused to the plant, ECHCG ([2]; 1000 g/ha) | percentage damage caused to the plant, IPOHE ([3]; 1000 g/ha) | percentage damage caused to the plant, LOLPE ([4]; 1000 g/ha) | percentage damage caused to the plant, SETFA ([5]; 1000 g/ha) | percentage damage caused to the plant, SOLNI ([6]; 1000 g/ha) | Pre-emergence Test AMARE percentage damage (five point scale) ([7]; rate 1000 g/ha) | Pre-emergence Test ECHCG percentage damage (five point scale) ([8]; rate 1000 g/ha) | Pre-emergence Test IPOHE percentage damage (five point scale) ([9]; rate 1000 g/ha) | Pre-emergence Test LOLPE percentage damage (five point scale) ([10]; rate 1000 g/ha) | Pre-emergence Test SETFA percentage damage (five point scale) ([11]; rate 1000 g/ha) | Pre-emergence Test SOLNI percentage damage (five point scale) ([12]; rate 1000 g/ha) | other results
N#Cc1cnn(-c2ccccc2Oc2ncc(Cl)cc2F)c1 [Compound A26] | 5 (5=81-100%) | 5 (5=81-100%) | 3 (3=41-60%) | 3 (3=41-60%) | 5 (5=81-100%) | 5 (5=81-100%) | 5 (5=81-100%) | 5 (5=81-100%) | 4 (4=61-80%) | 5 (5=81-100%) | 5 (5=81-100%) | 5 (5=81-100%) | –
Fc1cc(Cl)cnc1Oc1ccccc1-n1cc(Br)cn1 [Compound A27] | – | – | – | – | – | – | – | – | – | – | – | – | percentage damage caused to the plant, AMARE ([1]; 250 g/ha): 4 (4=61-80%); percentage damage caused to the plant, ECHCG ([2]; 250 g/ha): 5 (5=81-100%); percentage damage caused to the plant, IPOHE ([3]; 250 g/ha): 2 (2=21-40%); percentage damage caused to the plant, LOLPE ([4]; 250 g/ha): 2 (2=21-40%); percentage damage caused to the plant, SETFA ([5]; 250 g/ha): 5 (5=81-100%); percentage damage caused to the plant, SOLNI ([6]; 250 g/ha): 5 (5=81-100%); Pre-emergence Test AMARE percentage damage (five point scale) ([7]; rate 250 g/ha): 5 (5=81-100%); Pre-emergence Test ECHCG percentage damage (five point scale) ([8]; rate 250 g/ha): 5 (5=81-100%); Pre-emergence Test IPOHE percentage damage (five point scale) ([9]; rate 250 g/ha): 1 (1=0-20%); Pre-emergence Test LOLPE percentage damage (five point scale) ([10]; rate 250 g/ha): 3 (3=41-60%); Pre-emergence Test SETFA percentage damage (five point scale) ([11]; rate 250 g/ha): 4 (4=61-80%); Pre-emergence Test SOLNI percentage damage (five point scale) ([12]; rate 250 g/ha): 5 (5=81-100%)
Fc1cc(Cl)cnc1Oc1ccccc1-n1ccnc1 [Compound A28, 5-chloro-3-fluoro-2-(2-imidazol-1-ylphenoxy)pyridine] | 5 (5=81-100%) | 1 (1=0-20%) | 1 (1=0-20%) | 1 (1=0-20%) | 1 (1=0-20%) | 4 (4=61-80%) | 3 (3=41-60%) | 1 (1=0-20%) | 1 (1=0-20%) | 1 (1=0-20%) | 1 (1=0-20%) | 1 (1=0-20%) | –
Fc1cc(Cl)cnc1Oc1ccccc1-n1cncn1 [Compound A29] | 4 (4=61-80%) | 1 (1=0-20%) | 2 (2=21-40%) | 1 (1=0-20%) | 2 (2=21-40%) | 4 (4=61-80%) | 5 (5=81-100%) | 1 (1=0-20%) | 1 (1=0-20%) | 1 (1=0-20%) | 4 (4=61-80%) | 3 (3=41-60%) | –
